Assay in all cases: NCI-60 cell line screen, 48 h
The subject of test [1] is A549 NSCLC.
Test [2] deals with CCRF-CEM leukemia.
The test system of test [3] is HS 578T breast.
Test [4] deals with LOX IMVI melanoma.
The test system of test [5] is MDA-MB-231 breast.
Test [6] concerns NCI-H226 lung.
The subject of test [7] is NCI/ADR-RES ovarian.
For test [8], the system named is SF-295 CNS.
Test [9] deals with SK-MEL-5 melanoma.
In test [10] the test system is UACC-62 melanoma.

Structures are written as SMILES. Where “and” joins values, the source holds several entries; their conditions need not be identical. Identical values can stand only once.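 Tested at 5 concentrations; 48 h exposure; 96-well plates; endpoints linearly interpolated, else capped at highest concentration. Here, GI50 denotes the concentration required for 50% inhibition of growth. TGI: total growth inhibition.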

As for `O=c1c2cc(Cl)ccc2oc2ccc(OCCCCCN3CCCCC3)cc12`, the GI50 is 4.78 µM in test [1]; 3.92 µM in test [2]; 6.16 µM in test [3]; 0.967 µM in test [4]; 3.15 µM in test [5]; 8.74 µM in test [6]. Also, the GI50 was 5.47 µM in test [7], 6.62 µM in [8], 0.892 µM in test [9] and 1.01 µM in test [10]. Also, the TGI was 10.9 µM in test [1]; 11.3 µM in test [2]; 15.1 µM in test [3]; 2.12 µM in [4]; 9.77 µM in [5]; 18.6 µM in test [6]. Further, the TGI in [7] came out at 24.8 µM; in test [8] it was 13.5 µM; in test [9], 1.91 µM; in [10] it was 2.06 µM.

On to `CN[C@@H](C)C(=O)N[C@H](C(=O)N1CCC[C@H]1C(=O)N[C@H]1c2ccccc2C[C@H]1OCC#CC#CCO[C@@H]1Cc2ccccc2[C@@H]1NC(=O)[C@@H]1CCCN1C(=O)[C@@H](NC(=O)[C@H](C)NC)C1CCCCC1)C1CCCCC1`, for which the GI50 in test [1] is 15.5 µM; in [2], 1.1 µM; in test [3], 4.62 µM; in test [4] it was 1.7 µM; in test [5], below 0.01 µM; in test [6], 19.6 µM. The GI50 in test [7] is 12 µM; in [8] it was 0.514 µM; in test [9] it was 2.37 µM; in [10] it was 4.57 µM. The TGI is 31.5 µM in [1]; 4.27 µM in test [2]; 12.1 µM in test [3]; 3.38 µM in test [4]; 41.5 µM in [6]; above 100 µM in test [7]. Besides, the TGI in test [8] came to 20.8 µM; in test [9], 13.7 µM; in test [10], 9.97 µM.

`O=Cc1ccc(-c2cc(C=O)c(-c3cccs3)[nH]2)s1`: the GI50 in test [1] was 29.8 µM; in test [2], above 100 µM; in [3] it was above 100 µM; in [4] it was above 100 µM; in test [5], above 100 µM; in [7], 68.3 µM. In addition, the GI50 in test [8] was 36.9 µM; in [9], 40.5 µM; in test [10], 46 µM. Also, the TGI was 75 µM and > 100 µM in test [1]; 75 µM and > 100 µM in test [2]; 75 µM and > 100 µM in test [3]; 75 µM and > 100 µM in test [4]; 75 µM and > 100 µM in test [5]; 40 µM in test [6]. Also, the TGI in test [7] is 75 µM and > 100 µM; in test [8], 75 µM and > 100 µM; in [9] it was 75 µM and > 100 µM; in [10] it was 75 µM and > 100 µM.

Regarding `CC(C)=CCCC(C)c1ccc(C)c2c1OCN(CC1CCNCC1)C2` (stereo not drawn), the GI50 in [1] was 13 µM; in [3] it was 13.3 µM; in [4] it was 5.87 µM; in [5], 12.5 µM; in test [6], 17.7 µM; in test [7], 16.8 µM. In addition, the figures for the GI50 in [8], in [9] and in test [10] were 15.9 µM, 4.97 µM and 15.5 µM, respectively. In addition, the TGI in [1] stood at 27.8 µM; in [3], 29.9 µM; in [4], 20.2 µM; in test [5], 28.3 µM; in test [6], 33.8 µM; in [7], 34.8 µM. For the same compound, the values for the TGI in test [8], in test [9] and in test [10] were 34.9 µM, 18.3 µM and 29.9 µM, respectively.

For `COc1cc(/C=C/C(=O)CC(=O)/C=C/c2cc(OC)c(OC)c(OC)c2)cc(OC)c1OC`, the GI50 in test [1] is 5.76 µM; in test [2], 2.58 µM; in [3] it was 3 µM; in [4] it was 2.19 µM; in test [5], 3.13 µM; in [6], 10.2 µM. The GI50 in test [7] is 4.18 µM; in test [8], 3.16 µM; in test [9], 4.51 µM; in test [10], 3.17 µM. Further, the TGI in [1] is above 100 µM; in [2], above 100 µM; in [3] it was 9.51 µM; in [4], 9.14 µM; in test [5], 9.12 µM; in test [6] it was above 100 µM. Also, the TGI in test [7] was above 100 µM; in test [8], 17.2 µM; in [9] it was 46 µM; in [10], 13.4 µM.

In the case of `CC(C)c1ccc(C(=O)Nc2nc3ccc(O)cc3s2)cc1`, the GI50 in test [1] was 2.33 µM; in test [2], 0.318 µM; in [3], 11.4 µM; in test [4], 0.2 µM; in test [5], 1.97 µM; in test [6], 5.16 µM. Also, the GI50 in test [7] was 0.948 µM; in [9] it was 0.535 µM; in test [10] it was 0.124 µM. Besides, the TGI in test [1] is above 100 µM; in [2] it was above 100 µM; in [3], above 100 µM; in test [4], 29.5 µM; in [5] it was above 100 µM; in test [6], 50.4 µM. In addition, the TGI in [7], in [9] and in [10] was above 100 µM in each case.

With `COc1ccc(N2C(=O)CC(Cl)C2=O)cc1` (stereo not drawn), the TGI is above 100 µM in test [1]; above 100 µM in test [3]; 58.9 µM in test [4]; 36.5 µM in [5]; 46.4 µM in [6]; above 100 µM in test [7]. Further, the values for the TGI in [9] and in test [10] were above 100 µM and 46.5 µM, respectively.

With `Cn1ccnc1CC(C)(O)c1ccccc1` (stereo not drawn), the TGI in test [1], in [3], in [4], in [5], in test [6] and in test [7] was above 100 µM each time. The TGI in [8], in [9] and in test [10] was above 100 µM throughout.

On to `CCN(CC)CC(O)CNc1ccc(NCC2CO2)c2c1C(=O)c1ccccc1C2=O` (stereo not drawn), for which the TGI in test [1] is 5.69 µM; in [3] it was 24.1 µM; in test [4], 0.0392 µM and 0.0576 µM; in test [5] it was 3.01 µM; in test [6], 3.21 µM; in [7], 0.815 µM. Besides, the TGI in [8] amounted to 4.6 µM; in [9], 1.8 µM; in test [10], 2.3 µM. The GI50 in test [4] is 0.00454 µM; in test [6] it was 0.958 µM; in [9] it was 0.398 µM; in test [10], 0.426 µM.

As for `CC(=O)Nc1ccc(C(=O)NN2C(=O)C(Cl)C2c2ccc(Cl)cc2)cc1` (stereo not drawn), the TGI in [1] was above 100 µM; in [2] it was above 100 µM; in test [3], 41.6 µM; in test [5], 70.3 µM; in test [6], above 92.1 µM; in [7], above 100 µM. In addition, the TGI was 44.7 µM in [8], above 100 µM in test [9] and above 100 µM in test [10].

The record behind these values is PubChem BioAssay (NCI).
